In patent US9925238B2, “Use of peptide for treating angiogenesis-related diseases” (MacKay Memorial Hospital, priority 2014, dated 2018):

What was measured:
[1] = system: human umbilical vein endothelial cells (HUVECs); assay: Matrigel angiogenesis assay (tube formation) with HUVECs; type: cell-based; details: FIGS. 5 and 6; for inhibition of angiogenesis of HUVEC cells on the Matrigel: 24 hours
Procedure: (§1) A total of 200 μl Matrigel was added into wells of a 24-well plate and polymerized for 30 minutes at 37° C. EPC suspensions containing various concentrations of Dsg2 peptide (0.25 mg/ml, 0.5 mg/ml, or 1 mg/ml), scramble peptide (1 mg/ml) or Avastin (10 μg/ml) were plated on the Matrigel-coated wells at a density of 5×10^4 cells (EPCs, or HUVECs) in MV2 medium containing 2% FBS for 24 hours at 37° C. in a 5% CO2 humidified incubator. Each sample was tested in triplicate in the same plate, and wells were photographed with a Leica camera (×40 magnification).
(§2) Tube length in relative to the control was quantified by measuring tubes in 5 randomly chosen fields from each well with QWIN software. Experiments were repeated more than three times. The values were expressed as the means±S.D. for the three independent experiments.

[2] = system: C57BL/6 mice; assay: Oxygen-induced retinopathy (OIR) retinal neovascularization model; type: in vivo, mouse; details: FIGS. 9 and 10; for inhibition of angiogenesis (retinal neovascularization) in the OIR model: intravitreal injection at P12, eyes at P17, compared with PBS or scramble peptide, p<0.01
Procedure: The neonatal mouse (C57BL/6) pups of normoxia group (serving as control) were kept in room air until postnatal day 12 (P12), while the pups of OIR group were maintained with their nursing mothers for 5 days in 75% oxygen at P7 and then returned to room air (relative hypoxia) so as to generate oxygen-induced neovascularization at P12. 1 μl of Dsg2 peptide (25 μg), scramble peptide (25 μg) and Avastin (10 μg) were intravitreally injected into mouse eyes at P12, respectively. The animals were killed, and the mouse eyes were enucleated at P17.
Mouse eye cups were fixed in 4% paraformaldehyde for 2 hours. The retina was carefully separated from eye cup, and then incubated with fluorescein-labeled isolectin-B4 (Life technologies) at 4° C. overnight. Samples were coverslipped with Vectashield medium (Vector Laboratories), and the lectin labeling was examined by use of the 20× objective of a Zeiss LSM-510 confocal microscope. Fluorescence volume measurements were recorded by creating image stacks of optical slices within lesions with QWIN software. Values for implicit volume were designated as mean total surface area.

[3] = system: human endothelial progenitor cells (EPCs); assay: Matrigel angiogenesis assay (tube formation) with EPCs; type: cell-based; details: for inhibition of angiogenesis in EPCs: FIGS. 3 and 4
Procedure: as §1, §2

[4] = system: C57BL/6 mice; assay: Matrigel plug assay; type: in vivo, mouse; details: 7 days
Procedure: 0.5 ml of growth factor-reduced liquid Matrigel respectively containing: (1) heparin (60 U/mL); (2) heparin (60 U/mL), VEGF (10 ng/ml), and PBS; (3) heparin (60 U/mL), VEGF (10 ng/ml), and scramble peptide (1 mg/ml); and (4) heparin (60 U/mL), VEGF (10 ng/ml), and Dsg2 peptide (1 mg/ml) were subcutaneously injecting into the skin near the abdominal midline of C57BL/6 mice. 7 days after injection, mice were euthanized, and Matrigel plugs were surgically removed and analyzed.
For macroscopic analysis of angiogenesis, hemoglobin content in Matrigel was measured with Drabkin reagent 525 (Sigma-Aldrich). Briefly, the Matrigel plug sample was re-liquefied by being place at 4° C. on ice with red cell lysis reagent for 24 hours. After brief centrifugation, 20 μl of supernatant was added to 100 μl of Drabkin solution. The mixture was allowed to stand 30 minute at room temperature, and the absorbance was measured at 540 nm. The obtained hemoglobin content was normalized to the plug weight and the value was expressed as μg hemoglobin/mg Matrigel plug.

Bevacizumab [Avastin, reference compound]
inhibition of angiogenesis of HUVEC cells on the Matrigel [1]: capable of inhibiting angiogenesis
inhibition of angiogenesis (retinal neovascularization) in the OIR model [2]: significantly inhibited the angiogenesis

IVSLEPAYPP (IP10) [fragment of the predicted EC2 domain of Dsg2 peptide]
inhibition of angiogenesis (tube formation) of EPCs on Matrigel ([3]; fragments at 1.0 mg/ml, p<0.05, FIG. 2): can inhibit the angiogenesis

KINATDADEPNTLNSKISYRC (extra C-terminal cysteine; Dsg2-derived peptide) [Dsg2-derived short peptide, KR20 fragment conjugated with one extra cysteine residue]
inhibition of angiogenesis in EPCs ([3]; 0.5 mg/ml (200 uM)): significantly inhibited angiogenesis
inhibition of angiogenesis in EPCs ([3]; 1.0 mg/ml (400 uM)): significantly inhibited angiogenesis
reduction of tube formation ([3]; 1.0 mg/ml (400 uM), p<0.05): more than 50%
relative tube length in relative to the control group ([3]; 1.0 mg/ml (400 uM), p<0.05): less than 50%
inhibition of angiogenesis of HUVEC cells on the Matrigel [1]: capable of inhibiting angiogenesis
efficacy in inhibiting tube formation compared with Avastin ([1]; HUVECs on Matrigel): more effective than Avastin
formation of newly formed blood vessels in Matrigel plug ([4]; 1 mg/ml in plug with heparin and VEGF, compared with PBS or scramble peptide, FIG. 7): capable of inhibiting the formation of newly formed blood vessels
hemoglobin content of Matrigel plug ([4]; 1 mg/ml in plug, vs plug containing PBS or scramble peptide, p<0.05, FIG. 8): significantly lower
anti-angiogenic efficacy compared with Avastin ([2]; OIR model, intravitreal): better than that of Avastin
inhibition of angiogenesis (retinal neovascularization) in the OIR model [2]: significantly inhibited the angiogenesis
